From ChEMBL document CHEMBL4673371, “Discovery of BAZ1A bromodomain inhibitors with the aid of virtual screening and activity evaluation” (Bioorg Med Chem Lett, 2021)

Experiments:
[1] = molecular target: T1, Bromodomain adjacent to zinc finger domain protein 1A (Homo sapiens, UniProt Q9NRL2); experiment: Binding affinity to recombinant human N-terminal His6-tagged BAZ1A (1446 to 1516 residues) expressed in Escherichia coli BL21 (DE3) cells assessed as change in melting temperature at 25 uM by DSF assay
T1 sequence (Q9NRL2 whole entry, the tested form may be a part): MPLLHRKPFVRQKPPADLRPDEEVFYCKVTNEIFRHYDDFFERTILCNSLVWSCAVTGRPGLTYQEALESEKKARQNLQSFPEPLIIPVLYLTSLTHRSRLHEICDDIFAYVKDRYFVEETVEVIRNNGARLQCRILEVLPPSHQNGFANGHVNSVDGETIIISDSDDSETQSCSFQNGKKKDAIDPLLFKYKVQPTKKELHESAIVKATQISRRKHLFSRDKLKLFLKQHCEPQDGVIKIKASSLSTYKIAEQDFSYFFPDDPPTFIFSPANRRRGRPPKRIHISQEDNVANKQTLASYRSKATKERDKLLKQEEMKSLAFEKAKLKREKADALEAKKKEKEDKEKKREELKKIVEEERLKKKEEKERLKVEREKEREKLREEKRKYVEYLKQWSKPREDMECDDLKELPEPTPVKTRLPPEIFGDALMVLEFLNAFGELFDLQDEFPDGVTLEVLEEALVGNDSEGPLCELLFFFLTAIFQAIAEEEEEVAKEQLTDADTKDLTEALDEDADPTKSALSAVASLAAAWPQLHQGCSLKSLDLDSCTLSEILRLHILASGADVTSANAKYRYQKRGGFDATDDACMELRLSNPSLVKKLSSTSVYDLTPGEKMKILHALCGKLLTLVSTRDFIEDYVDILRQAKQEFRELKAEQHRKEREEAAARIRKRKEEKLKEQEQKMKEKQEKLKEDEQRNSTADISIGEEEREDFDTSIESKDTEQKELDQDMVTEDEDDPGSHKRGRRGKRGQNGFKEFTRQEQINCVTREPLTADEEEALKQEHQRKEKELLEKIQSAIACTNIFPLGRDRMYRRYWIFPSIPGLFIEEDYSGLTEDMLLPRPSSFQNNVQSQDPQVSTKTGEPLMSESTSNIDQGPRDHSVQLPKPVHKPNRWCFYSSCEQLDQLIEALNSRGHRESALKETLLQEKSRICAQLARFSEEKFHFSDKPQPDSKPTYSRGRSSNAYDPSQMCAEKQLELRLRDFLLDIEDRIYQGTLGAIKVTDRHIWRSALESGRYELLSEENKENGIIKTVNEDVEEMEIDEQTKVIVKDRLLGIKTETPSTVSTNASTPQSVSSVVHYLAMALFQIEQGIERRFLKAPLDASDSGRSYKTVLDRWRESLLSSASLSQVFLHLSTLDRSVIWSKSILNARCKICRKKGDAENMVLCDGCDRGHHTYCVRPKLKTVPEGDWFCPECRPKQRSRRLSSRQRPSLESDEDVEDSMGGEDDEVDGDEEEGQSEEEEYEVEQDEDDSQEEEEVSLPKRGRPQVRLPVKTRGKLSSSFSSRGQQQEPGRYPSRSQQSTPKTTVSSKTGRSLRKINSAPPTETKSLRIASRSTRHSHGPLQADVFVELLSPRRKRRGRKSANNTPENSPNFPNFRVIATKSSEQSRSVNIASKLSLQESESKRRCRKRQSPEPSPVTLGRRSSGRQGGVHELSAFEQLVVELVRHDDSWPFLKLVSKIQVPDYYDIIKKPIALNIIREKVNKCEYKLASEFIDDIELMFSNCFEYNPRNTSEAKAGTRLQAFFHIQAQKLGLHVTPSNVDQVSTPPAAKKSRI

[2] = molecular target: T1, Bromodomain adjacent to zinc finger domain protein 1A; experiment: Binding affinity to recombinant human N-terminal His6-tagged BAZ1A (1446 to 1516 residues) expressed in Escherichia coli BL21 (DE3) cells by MST assay
ZR-75-30 = experiment: Cytotoxicity against human ZR-75-30 cells assessed as reduction in cell viability incubated for 72 hrs by MTT assay; assay type: functional, cell-based; conditions: ZR-75-30, 72 h
NCI-H1975 = experiment: Cytotoxicity against human H1975 cells assessed as reduction in cell viability incubated for 72 hrs by MTT assay; assay type: functional, cell-based; conditions: NCI-H1975, 72 h
BT-474 = experiment: Cytotoxicity against human BT474 cells assessed as reduction in cell viability incubated for 72 hrs by MTT assay; assay type: functional, cell-based; conditions: BT-474, 72 h
Bel-7402 = experiment: Cytotoxicity against human BEL7402 cells assessed as reduction in cell viability incubated for 72 hrs by MTT assay; assay type: functional, cell-based; conditions: Bel-7402, 72 h
U-87 MG = experiment: Cytotoxicity against human U87 cells assessed as reduction in cell viability incubated for 72 hrs by MTT assay; assay type: functional, cell-based, U-87MG ATCC
THP-1 = experiment: Cytotoxicity against human THP-1 cells assessed as reduction in cell viability incubated for 72 hrs by MTT assay; assay type: functional, cell-based; conditions: THP-1, 72 h
[3] = Cytotoxicity against human H820 cells assessed as reduction in cell viability incubated for 72 hrs by MTT assay; assay type: functional, cell-based; conditions: NCI-H820, 72 h

Structure (SMILES)	ΔTm [1]	Kd [2]	further results
CN(C)c1ccc(NC(=O)Nc2cccc([N+](=O)[O-])c2)cc1	1.56 °C	1.76 µM	
O=C(Nc1ccc(C(F)(F)F)cc1)Nc1cccc(O)c1	3.15 °C	13.2 µM	
O=C(Nc1cccc([N+](=O)[O-])c1)Nc1ccc2cccnc2c1	1.63 °C	6.68 µM	
CC(NC(=O)Nc1ccc2nnsc2c1)c1cccc(F)c1 (centres undefined)	1.62 °C	8.2 µM	
NC(C(=O)Nc1ccc2nnsc2c1)c1ccccc1 (centres undefined)	1.25 °C	1.87 µM	
O=C(Nc1cccc([N+](=O)[O-])c1)Nc1ccc2c(c1)OCCO2	1.62 °C	1.36 µM	
O=C(Nc1cccc([N+](=O)[O-])c1)Nc1ccc2nccnc2c1	1.64 °C	3.09 µM	
C=C(C)C(=O)Nc1ccc(-c2nc3cc(NC(=O)C(=C)C)ccc3[nH]2)cc1	1.61 °C	15.2 µM	
O=C(Nc1ccc(Cl)c(Cl)c1)Nc1ccc2nnsc2c1	2.59 °C	1.57 µM	
CN(Cc1cccc([N+](=O)[O-])c1)C(=O)Nc1ccc2nnsc2c1	1.46 °C	57.6 µM	
O=C(Nc1cccc([N+](=O)[O-])c1)Nc1ccc2c(c1)C(=O)CC2	1.16 °C	22 µM	
O=C(Nc1ccc2cncnc2c1)Nc1ccc2nnsc2c1	1.94 °C	3.93 µM	
O=C(Nc1cccc([N+](=O)[O-])c1)Nc1nc(-c2ccccc2)cs1	2.73 °C	0.52 µM	IC50 (ZR-75-30): 4.29 µM; IC50 (NCI-H1975): 7.7 µM; IC50 (BT-474): 10.7 µM; IC50 (Bel-7402): > 100 µM; IC50 (U-87 MG): > 100 µM; IC50 (THP-1): 5.08 µM; IC50 [3]: 73.7 µM
O=C(Nc1ccc2nnsc2c1)N(O)c1ccccc1	1.68 °C	16.3 µM	
Cc1ccc2nc(-c3ccc(NC(=O)c4ccc([N+](=O)[O-])o4)cc3)oc2c1	1.9 °C	26.6 µM	
O=C(NCC(=O)N1CCCCC1)Nc1ccc2nnsc2c1	1.2 °C	25.6 µM	
